From patent US9884843B2 (Peloton Therapeutics, Inc., priority 2013, dated 2018)
“Also recorded” adds a separate entry of the source. Like-named read-outs stand apart in the source and are kept apart here. Values belong to the compound of their own block, whether it stands above or below them.

Assays:
[1] = tested on: HIF-2α HIS TAG-PASB Domain; assay: biochemical; format: binding
Text: (§1) The term “scintillation proximity assay” (SPA) refers to a homogenous assay in which light is emitted when a radiolabeled ligand is brought into close proximity to a radiosensitive bead. The assay typically contains a target protein that contains a tag (e.g., His Tag, Glutathione S-transferase Tag). The tag on the protein is used to bind the target protein to the scintillation bead. Radiolabeled ligand (e.g., labeled with tritium) that binds to the protein is now in close proximity to the bead, and when the raidolabel (e.g., tritium) decays, the high energy particle hits the bead resulting in the emission of light that is detected by a detector, such as photomultiplier tube or CCD camera. When unlabeled ligands or compounds that bind to the protein are used in the assay, they displace the radiolabeled ligand, resulting in loss of signal.
(§2) The total assay volume was about 100 μL in the following configuration: 2-μL compound in DMSO, 88 μL buffer with protein and probe and 10 μL of SPA beads. […] To each compound, 88 μL of the buffer solution was then added. […] The percent inhibition was determined and IC50 values were calculated using the Dotmatics system based on the following equation: % inhibition=[(high control−sample)/(high control−low control)]×100.

human VEGFA = assay: In vivo PK/PD study: plasma human VEGFA by ELISA; parameters: species or system SCID/Biege mice; conditions: 786-O tumor-bearing mice, 10 mg/kg oral gavage three times at 12 hour intervals
Description: (§3) About 5×10^6 renal cell carcinoma 786-O tumor cells (ATCC® CRL-1932™, VHL and HIF-1α null cell line) in PBS and Matrigel (1:1 in volume) were injected subcutaneously in the right flanks of SCID/Biege mice at 6-7 weeks of age for xenograft development. When the xenografts reached about 450 mm^3 in size, the tumor-bearing mice were randomly divided into two groups (4 mice in each group). […] Animals were sacrificed at 12 hours post last dose. Tumors and plasma were collected from each animal. Total RNA was extracted from the tumors. The mRNA levels of HIF-2α and its respective target genes were determined by qRT-PCR.
The plasma level of human VEGFA was determined by ELISA assay.

786-O-Hif-Luc cells = assay: Luciferase Assay (HIF responsive element reporter); format: cell-based; conditions: read-out: Mean Luciferease EC50
Description: A pool of infected cells were then selected against 2 μg/mL of puromycin (P8833, Sigma) for 10 days followed by limited dilution to select single clones.
Each concentration was tested in triplicate. After about 24 hours, luciferase activity was determined using ONE-Glo Luciferase Assay Reagent (E6110, Promega) following the manufacturer's recommended procedure. EC50 were calculated by using Dotmatics software.

[2] = tested on: renal cell carcinoma 786-O xenograft; assay: In vivo efficacy study, 786-O xenograft; parameters: species or system SCID/Biege mice
[3] = tested on: HIF-2α and HIF-2α-regulated genes in 786-O xenograft; assay: In vivo PK/PD study: tumor mRNA levels by qRT-PCR; parameters: species or system SCID/Biege mice; conditions: 786-O xenograft mice, 10 mg/kg oral gavage three times at 12 hour intervals, 12 hours post last dose
Description: as §3

[4] = tested on: VEGF in culture medium of 786-O cells; assay: VEGF ELISA Assay; format: cell-based
Description: Four hours later, serial dilutions of 10× compound stocks were made in growth medium from 500×DMSO stocks, and 20 μL of those 10× stocks were added to each well to make final concentrations as follows (μM): 20, 6.7, 2.2, 0.74, 0.25, 0.082, 0.027, 0.009, 0.003, 0.001, 0. Each concentration had duplicated wells. About twenty hours later, the growth medium was removed by suction and each well was supplied with 180 μL of growth medium. About 20 μl freshly-made 10× compound stocks were added to each well. […] The EC50 was calculated by GraphPad Prism using the dose-response-inhibition (four parameter) equation. The cell seeded plate was then subjected to CellTiter-Glo luminescence cell viability assay (Promega) by adding about 50 μL of Celltiter Glo reagent into each well and shaking the plate for 8 minutes at 550 rpm (Thermomixer R, Eppendorf). The luminescence signals were read in a plate reader (3 second delay, 0.5 second/well integration time, Synergy 2 multi Detection Microplate reader) immediately.

[5] = target: HIF-2α HIS TAG-PASB Domain (Homo sapiens, UniProt Q99814); assay: biochemical; format: binding; conditions: displacement of Compound 120 probe; mean; read-out: Mean SPA IC50
Chain of HIF-2α HIS TAG-PASB Domain (Homo sapiens, UniProt Q99814) (Q99814 whole entry, looked up, the tested form may be a part): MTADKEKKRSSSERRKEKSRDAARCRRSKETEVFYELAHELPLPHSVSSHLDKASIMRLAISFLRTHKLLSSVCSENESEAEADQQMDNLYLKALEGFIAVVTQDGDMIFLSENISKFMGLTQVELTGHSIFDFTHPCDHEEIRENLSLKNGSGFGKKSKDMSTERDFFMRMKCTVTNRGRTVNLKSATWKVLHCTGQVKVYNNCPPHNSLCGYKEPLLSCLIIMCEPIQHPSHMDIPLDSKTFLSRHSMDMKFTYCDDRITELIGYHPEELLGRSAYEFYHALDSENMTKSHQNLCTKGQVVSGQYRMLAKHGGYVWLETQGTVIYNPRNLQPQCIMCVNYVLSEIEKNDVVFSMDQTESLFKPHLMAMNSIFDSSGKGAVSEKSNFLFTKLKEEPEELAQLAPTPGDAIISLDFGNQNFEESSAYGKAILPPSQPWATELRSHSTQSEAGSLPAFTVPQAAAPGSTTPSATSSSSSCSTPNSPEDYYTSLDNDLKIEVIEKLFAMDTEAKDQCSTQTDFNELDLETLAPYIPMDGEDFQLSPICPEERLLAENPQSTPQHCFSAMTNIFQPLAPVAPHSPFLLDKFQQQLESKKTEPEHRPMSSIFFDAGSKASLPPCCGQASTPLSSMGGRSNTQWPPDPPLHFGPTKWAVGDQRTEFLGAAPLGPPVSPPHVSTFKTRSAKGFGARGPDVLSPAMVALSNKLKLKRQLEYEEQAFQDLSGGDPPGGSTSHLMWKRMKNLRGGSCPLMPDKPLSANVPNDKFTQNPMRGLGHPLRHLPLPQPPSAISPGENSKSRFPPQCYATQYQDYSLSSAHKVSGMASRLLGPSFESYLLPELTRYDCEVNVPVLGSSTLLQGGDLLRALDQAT
Text: as §1, §2

[6] = 786-O-Hif-Luc cells, about 24 hours
[7] = displacement of Compound 120 probe, mean, read-out: Mean SPA IC50
[8] = 24 h, 786-O-Hif-Luc cells, about 24 hours

Structure (SMILES): O=S1(=O)C[C@@H](O)c2c1ccc(Oc1cc(F)cc(Cl)c1)c2Br [(3S)-4-bromo-5-(3-chloro-5-fluoro-phenoxy)-1,1-dioxo-2,3-dihydrobenzothiophen-3-ol]
IC50 ([1]; unnumbered compounds listed by structure and name, read-out: IC50 value in SPA): > 100000 nM

Structure (SMILES): N#Cc1cc(F)cc(Oc2ccc3c(c2C(F)F)[C@@H](O)C(F)(F)S3(=O)=O)c1 [Compound 3, (R)-3-((4-(Difluoromethyl)-2,2-difluoro-3-hydroxy-1,1-dioxido-2,3-dihydrobenzo[b]thiophen-5-yl)oxy)-5-fluorobenzonitrile]
Plasma level of human VEGFA (human VEGFA): reduced; also recorded: undetectable level
EC50 (786-O-Hif-Luc cells; [6]): 7 nM
Effect on tumor size ([2]; 10 mg/kg b.i.d. oral gavage for 21 days, versus vehicle): tumor size reduction and regression; also recorded: statistically significant reduction of tumor size
Tumor size Mean ± SEM ([2]; 10 mg/kg b.i.d. oral gavage, after 21 days of dosing): 57 ± 5.6 mm^3
Tumor mRNA for HIF-1α and HIF-1α specific target genes (PGK1 and PDK1) [3]: no significant effect; also recorded: no significant changes
Tumor mRNA for HIF-2α and HIF-2α specific target genes (PAI-1 and CCND1) [3]: reduced; also recorded: significant reduction

Structure (SMILES): N#Cc1c(Oc2cc(F)cc(Cl)c2)ccc2c1C(O)CS2(=O)=O (stereo not drawn) [Compound 7, 5-(3-chloro-5-fluorophenoxy)-3-hydroxy-2,3-dihydrobenzo[b]thiophene-4-carbonitrile 1,1-dioxide]
EC50 (786-O-Hif-Luc cells; [6]): 450 nM
EC50 ([4]; Homo sapiens, 786-0): 330 nM

Structure (SMILES): O=S1(=O)c2ccc(Oc3cc(F)cc(Cl)c3)c(Br)c2C(O)C1(F)F (stereo not drawn) [Compound 9, 4-Bromo-5-(3-chloro-5-fluorophenoxy)-2,2-difluoro-3-hydroxy-2,3-dihydrobenzo[b]thiophene 1,1-dioxide]
EC50 (786-O-Hif-Luc cells; [6]): 50 nM
EC50 ([4]; Homo sapiens, 786-0): 65 nM
IC50 [5]: 2 nM

Structure (SMILES): N#Cc1c(Oc2cc(F)cc(Cl)c2)ccc2c1C(O)C(F)(F)S2(=O)=O (stereo not drawn) [Compound 10, 5-(3-chloro-5-fluorophenoxy)-2,2-difluoro-3-hydroxy-2,3-dihydrobenzo[b]thiophene-4-carbonitrile 1,1-dioxide]
EC50 (786-O-Hif-Luc cells; [6]): 4170 nM
IC50 [1, 7]: 45 nM

Structure (SMILES): Cc1c(Oc2cc(F)cc(Cl)c2)ccc2c1C(O)C(F)(F)S2(=O)=O (stereo not drawn) [Compound 13, 5-(3-Chloro-5-fluorophenoxy)-2,2-difluoro-3-hydroxy-4-methyl-2,3-dihydrobenzo[b]thiophene 1,1-dioxide]
EC50 (786-O-Hif-Luc cells; 24 h): 450 nM
IC50 [1, 7]: 15 nM

Structure (SMILES): O=S1(=O)c2ccc(Oc3cc(F)cc(Cl)c3)cc2C(O)C1(F)F (stereo not drawn) [Compound 16, 5-(3-Chloro-5-fluorophenoxy)-2,2-difluoro-3-hydroxy-2,3-dihydrobenzo[b]thiophene 1,1-dioxide]
IC50 [1, 7]: 1880 nM

Structure (SMILES): O=S1(=O)c2ccc(Oc3cncc(Cl)c3)c(C(F)F)c2C(O)C1(F)F (stereo not drawn) [Compound 35, 5-((5-Chloropyridin-3-yl)oxy)-4-(difluoromethyl)-2,2-difluoro-3-hydroxy-2,3-dihydrobenzo[b]thiophene 1,1-dioxide]
EC50 (786-O-Hif-Luc cells; 24 h): 150 nM
IC50 [1, 7]: 230 nM

Structure (SMILES): [2H][C@@]1(O)c2c(ccc(Oc3cc(F)cc(C#N)c3)c2C(F)F)S(=O)(=O)C1(F)F [Compound 43, (R)-3-((4-(Difluoromethyl)-2,2-difluoro-3-hydroxy-1,1-dioxido-2,3-dihydrobenzo[b]thiophen-5-yl-3-d)oxy)-5-fluorobenzonitrile]
EC50 (786-O-Hif-Luc cells; [6]): 6 nM

The next lines start with the values.

EC50 (786-O-Hif-Luc cells; [6]): 170 nM
IC50 [1, 7]: 120 nM
Structure (SMILES): N#Cc1cncc(Oc2ccc3c(c2C(F)F)C(O)C(F)(F)S3(=O)=O)c1 (stereo not drawn) [Compound 37, 5-((4-(Difluoromethyl)-2,2-difluoro-3-hydroxy-1,1-dioxido-2,3-dihydrobenzo[b]thiophen-5-yl)oxy)nicotinonitrile]

EC50 (786-O-Hif-Luc cells; [6]): 2790 nM
IC50 [1, 7]: 2420 nM
Structure (SMILES): N#Cc1cc(F)cc(Oc2ccc3c(c2C(F)F)C(=O)C(F)(F)S3(=O)=O)c1 [Compound 39, 3-((4-(Difluoromethyl)-2,2-difluoro-1,1-dioxido-3-oxo-2,3-dihydrobenzo[b]thiophen-5-yl)oxy)-5-fluorobenzonitrile]

EC50 (786-O-Hif-Luc cells; [6]): 39 nM
EC50 [4]: 67 nM
Structure (SMILES): N=S1(=O)c2ccc(Oc3cc(F)cc(F)c3)c(C(F)F)c2C(O)C1(F)F (stereo not drawn) [Compound 53, 4-(difluoromethyl)-5-(3,5-difluorophenoxy)-2,2-difluoro-3-hydroxy-1-imino-2,3-dihydro-1H-1λ^4-benzo[b]thiophene 1-oxide]

IC50 [1, 7]: 21900 nM
Structure (SMILES): CC1(C)C(O)c2c(ccc(Oc3cc(F)cc(Cl)c3)c2Br)S1(=O)=O (stereo not drawn) [Compound 60, 4-Bromo-5-(3-chloro-5-fluoro-phenoxy)-2,2-dimethyl-1,1-dioxo-3H-benzothiophen-3-ol]

EC50 (786-O-Hif-Luc cells; [8]): 95 nM
EC50 ([4]; Homo sapiens, 786-0): 330 nM
IC50 [5]: 120 nM
Structure (SMILES): N#Cc1cncc(Oc2ccc3c(c2Br)[C@@H](O)C(F)(F)S3(=O)=O)c1 [Compound 78, (R)-5-((4-Bromo-2,2-difluoro-3-hydroxy-1,1-dioxido-2,3-dihydrobenzo[b]thiophen-5-yl)oxy)nicotinonitrile]

EC50 (786-O-Hif-Luc cells; [8]): 18 nM
EC50 ([4]; Homo sapiens, 786-0): 31 nM
Structure (SMILES): C[C@@]1(O)c2c(ccc(Oc3cc(F)cc(C#N)c3)c2C#N)S(=O)(=O)C1(F)F [Compound 112, (R)-5-(3-cyano-5-fluorophenoxy)-2,2-difluoro-3-hydroxy-3-methyl-2,3-dihydrobenzo[b]thiophene-4-carbonitrile 1,1-dioxide]

EC50 (786-O-Hif-Luc cells; [8]): 4600 nM
IC50 [5]: 1230 nM
Structure (SMILES): N#Cc1cc(F)cc(Oc2ccc3c(c2C#N)C(N)C(F)(F)S3(=O)=O)c1 (stereo not drawn) [Compound 118, 3-Amino-5-(3-cyano-5-fluorophenoxy)-2,2-difluoro-2,3-dihydrobenzo[b]thiophene-4-carbonitrile 1,1-dioxide]
